Test results reported in patent US5491159A, “2-(3,5-di-tert-butyl-4-hydroxy-phenyl)-oxazoles as anti-atherosclerotic agents” (American Home Products Corporation, priority 1994, dated 1996).

Legend:
rabbit or monkey LDL = assay: Inhibition of Copper Ion Mediated Oxidation of Low Density Lipoprotein (in vitro); assay type: biochemical; settings: Cu^+2, rabbit or monkey LDL, 37° C., 90 minutes, absorbance at 532 nm; non-linear regression log [I] vs. % inhibition
Experimental: In this in vitro assay, the inhibition of Cu^+2 mediated oxidation of rabbit or monkey LDL by an invention compound is determined spectrophotometrically. Oxidation of LDL results in the formation of LDL-diene which absorbs light at 532 nm. Inhibition of oxidation of LDL leads to a decrease in absorbance at 532 nm.
Rabbit or monkey LDL is prepared according to the procedures of Havel, Eder and Gragdon, "The Distribution and Chemical Composition of Ultracentrifugally Separated Lipoproteins in Human Serum,: J. Clin. Invest. 34, 1345-1353 (1955) and Parhtasarathy, Wieland and Steriberg, "A Role for Endothelial Cell Lipoxygenase in the Oxidative Modification of Low Density Lipoprotein, " Proc. Natl. Acad. Sci. USA 86, 1046-1050 (1989). Test compound solutions are prepared by dissolving the invention compounds in ethanol at concentrations up to 248 μM. The medium used is Dulbecco's phosphate buffered saline containing 0.5 mg/ml bovine serum albumin. For standards, 0 to 10 μl of an aqueous solution of 1,1,3,3-tetraethoxypropane (1 μmol/ml H2 O) in 4.1 ml of medium is used.
Test compound solution (100 μl) is added to 4 ml of medium in incubation tubes. To each tube is added 10 μl of LDL solution and 25 μl of aqueous copper sulfate solution (1.32 mg/ml H2 O). The tubes are incubated at 37° C. for 90 minutes and the oxidation reaction quenched by addition of 1 ml of thiobarbituric acid solution (0.67% in 50% acetic acid). The tubes are heated at 90° C. for 1 hour, then chilled in an ice bath and the chromophore extracted into 2 ml of n-butanol. Absorbence is read at 532 nm and the results are reported as nmols of malondialdehyde equivalents.
Significant differences (p<0.05) are determined by the Dunnett T-test or by the Student-Newman Keuls Test for significant differences between means. The assay is conducted using several concentrations [I] of the inhibitor test compounds. The LDL solution concentrations at different experiments were either 1.5 mg/ml, 2.5 mg/ml or 10.3 mg/ml. The IC50 is determined by non-linear regression, plotting log [I] vs. % inhibition. (Reference: K. Yagi, Biochemical Medicine 15, 212-216 (1976)).

LDL [1] = settings: cited from earlier work
WHHL rabbits = settings: cited from earlier work
LDL [2] = settings: cited from earlier work; remark: listed apart in the source

Row | Compound | IC50 (rabbit or monkey LDL) [µM] | inhibition of Cu^+2 mediated oxidative modification of LDL (in words) (LDL [1]) | inhibition of the formation of atherosclerotic lesions (in words) (WHHL rabbits) | inhibition of cell mediated oxidative modification of LDL (in words) (LDL [2])
1 | COC(=O)Cc1nc(-c2cc(C(C)(C)C)c(O)c(C(C)(C)C)c2)oc1C [Example 1, [2-(3,5-di-tert-butyl-4-hydroxyphenyl)-5-methyloxazol-4-yl]-acetic acid methyl ester] | 0.07 | – | – | –
2 | Cc1oc(-c2cc(C(C)(C)C)c(O)c(C(C)(C)C)c2)nc1CC(=O)O [Example 2, [2-(3,5-di-tert-butyl-4-hydroxyphenyl)-5-methyloxazol-4-yl]-acetic acid] | 0.16 | – | – | –

Further lines, with some results ahead:

Row | IC50 (rabbit or monkey LDL) [µM] | Compound | inhibition of Cu^+2 mediated oxidative modification of LDL (in words) (LDL [1]) | inhibition of the formation of atherosclerotic lesions (in words) (WHHL rabbits) | inhibition of cell mediated oxidative modification of LDL (in words) (LDL [2])
3 | 0.27 | CCOC(=O)Cc1nc(-c2cc(C(C)(C)C)c(O)c(C(C)(C)C)c2)oc1C [Example 3, [2-(3,5-di-tert-butyl-4-hydroxyphenyl)-5-methyloxazol-4-yl]-acetic acid ethyl ester] | – | – | –
4 | 0.25 | COC(=O)Cc1coc(-c2cc(C(C)(C)C)c(O)c(C(C)(C)C)c2)n1 [Example 4, [2-(3,5-di-tert-butyl-4-hydroxyphenyl)-oxazol-4-yl]-acetic acid methyl ester] | – | – | –
5 | 0.23 | COC(=O)NC(=O)Cc1nc(-c2cc(C(C)(C)C)c(O)c(C(C)(C)C)c2)oc1C [Example 5, {2-[2-(3,5-di-tert-butyl-4-hydroxyphenyl)-5-methyloxazol-4-yl]acetyl}carbamic acid methyl ester] | – | – | –
6 | 0.27 | CC(C)(Sc1cc(C(C)(C)C)c(O)c(C(C)(C)C)c1)Sc1cc(C(C)(C)C)c(O)c(C(C)(C)C)c1 [probucol] | inhibits both cell mediated and Cu^+2 mediated oxidative modification of LDL | inhibit the formation of atherosclerotic lesions in WHHL rabbits | inhibits both cell mediated and Cu^+2 mediated oxidative modification of LDL
